Legend:
Type in all cases: cell-based, mouse
[1] = test system: α7 integrin (LacZ reporter in α7βgal+/− myoblasts); test: Myoblast α7+/LacZ integrin FDG assay (Burkin assay in myoblasts, 96-well); conditions: 96-well; for Burkin Assay in Myoblasts, value relative to DMSO: SU9516 analogs, N=3-6; for Burkin Assay in Myoblasts, signal relative to DMSO: α7+/LacZ myoblasts
[2] = test system: α7 integrin (LacZ reporter in α7+/LacZ myotubes); test: Myotube α7 integrin FDG assay (Burkin assay in myotubes, 96-well); conditions: for Burkin Assay in Myotubes, value relative to DMSO: SU9516 analogs, 96-well, N=3-6
[3] = test system: β-galactosidase in CMV-LacZ C2C12 myoblasts; test: CMV-LacZ secondary screen in C2C12 myoblasts (β-Gal stabilizing assay); conditions: for CMV-LACZ in Myoblasts, value relative to DMSO: SU9516 analogs, C2C12 CMV-LacZ, N=2; for CMV-LACZ in Myoblasts (β-galactosidase activity relative to DMSO): CMV-LacZ C2C12 myoblasts
Outline: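 C2C12 myoblasts stably carrying a linearized CMV-driven LacZ construct, clone chosen by β-gal level in the myoblast FDG assay. Compounds tested in 96-well dose-response at 0.5, 1, 5, 10, 20 and 40 μM, N=2 replicates per point, to detect β-gal stabilization.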

[4] = test system: β-galactosidase in CMV-LacZ C2C12 myotubes; test: CMV-LacZ secondary screen in C2C12 myotubes (β-Gal stabilizing assay); conditions: for CMV-LACZ in Myotubes, value relative to DMSO: SU9516 analogs, C2C12 CMV-LacZ, N=2; for CMV-LACZ in Myotubes, signal relative to DMSO: C2C12 CMV-LacZ myotubes, fold relative to DMSO
Outline: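 β-gal stabilization was measured in C2C12 myoblasts or myotubes stably transfected with a CMV-driven LacZ construct, using the FDG β-gal assay. Compounds were tested in dose-response at 0.5, 1, 5, 10, 20 and 40 μM, with two replicates per point.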

In the case of O=C1Nc2ccccc2/C1=C/c1cnc(-c2ccccc2)[nH]1 [MLS000834756-01], the “Burkin Assay in Myoblasts, value relative to DMSO” value ([1]; 0.5 uM) is reported as 1.056, the “Burkin Assay in Myoblasts, value relative to DMSO” value ([1]; 1 uM) is reported as 1.098 and the “Burkin Assay in Myoblasts, value relative to DMSO” value ([1]; 5 uM) is reported as 1.227. For the same compound, the “Burkin Assay in Myoblasts, value relative to DMSO” value ([1]; 10 uM) was 1.172, the “Burkin Assay in Myoblasts, value relative to DMSO” value ([1]; 20 uM) was 1.064 and the “Burkin Assay in Myoblasts, value relative to DMSO” value ([1]; 40 uM) was 1.081. For the same compound, the “Burkin Assay in Myotubes, value relative to DMSO” value ([2]; 0.5 uM) was 1.079, the “Burkin Assay in Myotubes, value relative to DMSO” value ([2]; 1 uM) was 1.189 and the “Burkin Assay in Myotubes, value relative to DMSO” value ([2]; 5 uM) was 1.095. For the same compound, the “Burkin Assay in Myotubes, value relative to DMSO” value ([2]; 10 uM) was 0.9214, the “Burkin Assay in Myotubes, value relative to DMSO” value ([2]; 20 uM) was 0.9495 and the “Burkin Assay in Myotubes, value relative to DMSO” value ([2]; 40 uM) was 0.9189. For the same compound, the “CMV-LACZ in Myoblasts, value relative to DMSO” value ([3]; 0.5 uM) was 0.8709, the “CMV-LACZ in Myoblasts, value relative to DMSO” value ([3]; 1 uM) was 1.0422 and the “CMV-LACZ in Myoblasts, value relative to DMSO” value ([3]; 5 uM) was 1.2652. For the same compound, the “CMV-LACZ in Myoblasts, value relative to DMSO” value ([3]; 10 uM) was 1.0917, the “CMV-LACZ in Myoblasts, value relative to DMSO” value ([3]; 20 uM) was 0.8022 and the “CMV-LACZ in Myoblasts, value relative to DMSO” value ([3]; 40 uM) was 1.1889. The “CMV-LACZ in Myotubes, value relative to DMSO” value ([4]; 0.5 uM) was 0.9859, the “CMV-LACZ in Myotubes, value relative to DMSO” value ([4]; 1 uM) was 1.0059 and the “CMV-LACZ in Myotubes, value relative to DMSO” value ([4]; 5 uM) was 1.1994. The “CMV-LACZ in Myotubes, value relative to DMSO” value ([4]; 10 uM) was 1.1713, the “CMV-LACZ in Myotubes, value relative to DMSO” value ([4]; 20 uM) was 2.0788 and the “CMV-LACZ in Myotubes, value relative to DMSO” value ([4]; 40 uM) was 2.2953.

In the case of Cc1ncc(/C=C2\C(=O)Nc3ccccc32)[nH]1 [MLS000834757-01], the “Burkin Assay in Myoblasts, value relative to DMSO” value ([1]; 0.5 uM) is reported as 1.0102, the “Burkin Assay in Myoblasts, value relative to DMSO” value ([1]; 1 uM) is reported as 1.003 and the “Burkin Assay in Myoblasts, value relative to DMSO” value ([1]; 5 uM) is reported as 1.125. For the same compound, the “Burkin Assay in Myoblasts, value relative to DMSO” value ([1]; 10 uM) was 0.9651, the “Burkin Assay in Myoblasts, value relative to DMSO” value ([1]; 20 uM) was 1.117 and the “Burkin Assay in Myoblasts, value relative to DMSO” value ([1]; 40 uM) was 1.021. The “Burkin Assay in Myotubes, value relative to DMSO” value ([2]; 0.5 uM) was 1.019, the “Burkin Assay in Myotubes, value relative to DMSO” value ([2]; 1 uM) was 0.943 and the “Burkin Assay in Myotubes, value relative to DMSO” value ([2]; 5 uM) was 1.03. For the same compound, the “Burkin Assay in Myotubes, value relative to DMSO” value ([2]; 10 uM) was 0.9537, the “Burkin Assay in Myotubes, value relative to DMSO” value ([2]; 20 uM) was 0.9989 and the “Burkin Assay in Myotubes, value relative to DMSO” value ([2]; 40 uM) was 0.9464. For the same compound, the “CMV-LACZ in Myoblasts, value relative to DMSO” value ([3]; 0.5 uM) was 1.0367, the “CMV-LACZ in Myoblasts, value relative to DMSO” value ([3]; 1 uM) was 0.9300 and the “CMV-LACZ in Myoblasts, value relative to DMSO” value ([3]; 5 uM) was 0.9101. The “CMV-LACZ in Myoblasts, value relative to DMSO” value ([3]; 10 uM) was 1.0942, the “CMV-LACZ in Myoblasts, value relative to DMSO” value ([3]; 20 uM) was 0.8115 and the “CMV-LACZ in Myoblasts, value relative to DMSO” value ([3]; 40 uM) was 1.1026. For the same compound, the “CMV-LACZ in Myotubes, value relative to DMSO” value ([4]; 0.5 uM) was 1.0238, the “CMV-LACZ in Myotubes, value relative to DMSO” value ([4]; 1 uM) was 0.8695 and the “CMV-LACZ in Myotubes, value relative to DMSO” value ([4]; 5 uM) was 1.0546. For the same compound, the “CMV-LACZ in Myotubes, value relative to DMSO” value ([4]; 10 uM) was 1.1047, the “CMV-LACZ in Myotubes, value relative to DMSO” value ([4]; 20 uM) was 1.0789 and the “CMV-LACZ in Myotubes, value relative to DMSO” value ([4]; 40 uM) was 1.3600.

With NS(=O)(=O)c1ccc(NC(=O)CN2CCc3ccccc32)cc1 [MLS000850522-01] the “Burkin Assay in Myoblasts, signal relative to DMSO” value ([1]; 0.5 uM) was 0.7993, the “Burkin Assay in Myoblasts, signal relative to DMSO” value ([1]; 1 uM) was 0.9332 and the “Burkin Assay in Myoblasts, signal relative to DMSO” value ([1]; 5 uM) was 1.307. The “Burkin Assay in Myoblasts, signal relative to DMSO” value ([1]; 10 uM) was 1.003, the “Burkin Assay in Myoblasts, signal relative to DMSO” value ([1]; 20 uM) was 0.8743 and the “Burkin Assay in Myoblasts, signal relative to DMSO” value ([1]; 40 uM) was 0.8805. For the same compound, the “Burkin Assay in Myotubes, α7 integrin LacZ reporter signal relative to DMSO” value ([2]; 0.5 uM) was 0.9439, the “Burkin Assay in Myotubes, α7 integrin LacZ reporter signal relative to DMSO” value ([2]; 1 uM) was 0.9058 and the “Burkin Assay in Myotubes, α7 integrin LacZ reporter signal relative to DMSO” value ([2]; 5 uM) was 1.11. For the same compound, the “Burkin Assay in Myotubes, α7 integrin LacZ reporter signal relative to DMSO” value ([2]; 10 uM) was 0.9263, the “Burkin Assay in Myotubes, α7 integrin LacZ reporter signal relative to DMSO” value ([2]; 20 uM) was 0.9416 and the “Burkin Assay in Myotubes, α7 integrin LacZ reporter signal relative to DMSO” value ([2]; 40 uM) was 0.9324. The “CMV-LACZ in Myoblasts (β-galactosidase activity relative to DMSO)” value ([3]; 0.5 uM) was 0.8880, the “CMV-LACZ in Myoblasts (β-galactosidase activity relative to DMSO)” value ([3]; 1 uM) was 1.3763 and the “CMV-LACZ in Myoblasts (β-galactosidase activity relative to DMSO)” value ([3]; 5 uM) was 0.8809. The “CMV-LACZ in Myoblasts (β-galactosidase activity relative to DMSO)” value ([3]; 10 uM) was 0.8671, the “CMV-LACZ in Myoblasts (β-galactosidase activity relative to DMSO)” value ([3]; 20 uM) was 0.8358 and the “CMV-LACZ in Myoblasts (β-galactosidase activity relative to DMSO)” value ([3]; 40 uM) was 1.0091. The “CMV-LACZ in Myotubes, signal relative to DMSO” value ([4]; 0.5 uM) was 0.8848, the “CMV-LACZ in Myotubes, signal relative to DMSO” value ([4]; 1 uM) was 0.8933 and the “CMV-LACZ in Myotubes, signal relative to DMSO” value ([4]; 5 uM) was 1.1090. The “CMV-LACZ in Myotubes, signal relative to DMSO” value ([4]; 10 uM) was 1.0751, the “CMV-LACZ in Myotubes, signal relative to DMSO” value ([4]; 20 uM) was 1.0580 and the “CMV-LACZ in Myotubes, signal relative to DMSO” value ([4]; 40 uM) was 1.0200.
